Data published in BindingDB's records for patent US10266537 (St. Chuan University, 2019).
pIC50: −log10 of the molar value.

Target: Tyrosine-protein kinase ABL1 [T315I] (Homo sapiens, UniProt P00519, T315I)
Assay: Kinase Inhibition Assays

pIC50: 6.88
Compound: C=CC(=O)N1CCC(n2nc(C#Cc3cc(C(=O)Nc4ccc(CN5CCN(C)CC5)c(C(F)(F)F)c4)ccc3C)c3c(N)ncnc32)CC1 [US10266537, Compound 121]
